# Target: T1, α2AAR (Homo sapiens, UniProt P08913)
# T1 construct: host or cells: HEK293 (membranes)
# T1 sequence (P08913 1-465): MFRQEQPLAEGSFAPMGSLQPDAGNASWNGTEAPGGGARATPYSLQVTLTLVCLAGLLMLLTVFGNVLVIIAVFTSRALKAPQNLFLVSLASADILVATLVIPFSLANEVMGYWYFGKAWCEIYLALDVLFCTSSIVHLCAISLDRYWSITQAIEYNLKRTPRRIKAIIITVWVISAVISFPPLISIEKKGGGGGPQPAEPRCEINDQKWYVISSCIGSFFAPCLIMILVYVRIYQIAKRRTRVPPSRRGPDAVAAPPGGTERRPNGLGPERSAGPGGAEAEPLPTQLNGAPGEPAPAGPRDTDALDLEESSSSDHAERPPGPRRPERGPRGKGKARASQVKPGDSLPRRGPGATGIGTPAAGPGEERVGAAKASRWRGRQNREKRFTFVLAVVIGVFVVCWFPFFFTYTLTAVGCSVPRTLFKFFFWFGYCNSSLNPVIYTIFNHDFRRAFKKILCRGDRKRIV
# Test: α2AAR binding assay ([3H]-RX 821002 radioligand)
# Conditions: [3H]-RX 821002 0.5 nM, HEK293 membranes; read-out: α2A affinity (Ki)
# Protocol: The α2AR Binding Assay was conducted using a stable HEK293 cell line, specifically constructed by WuXi AppTec for targeting α2AAR. […] Both the assay and wash buffers consist of 50 mM Tris-HCl at a pH of 7.4 (Tris base, Sigma, T1503-1 KG).
# The procedure initiated with the preparation of test compounds and a reference compound, yohimbine (Sigma, Y3125), through an 8-point 4-fold serial dilution, transferring 1 μL of each to the assay plate. […] After scaling, the plates were agitated at room temperature for one hour. Subsequently, the Unifilter-96 GF/C filter plates were pre-soaked with 0.3% PEI (Sigma, P3143) for at least half an hour. The reaction mixtures were then filtered and washed four times with cold wash buffer using a Perkin Elmer Cell harvester. Post-filtration, the plates were dried at 50° C. for one hour. […] The top of the plates was then sealed with TopSeal-A sealing film. The trapped 3H was quantified using a Perkin Elmer MicroBeta2 Reader. […] Finally, the data were analyzed with Prism 5.0 software, employing the “log (inhibitor) vs. response-Variable slope” model for data fitting. This comprehensive process ensured precise assessment of the binding affinity of compounds to the α2AAR.
row,Ki,SMILES
1,50 to 250 nM,Cc1cccc(C(CCCCNS(=O)(=O)C2CCOCC2)c2c[nH]cn2)c1C (stereo not drawn) [compound 250]
2,250 to 1000 nM,Cc1csc(C)c1C(c1cccc(NS(C)(=O)=O)c1)c1c[nH]cn1 (stereo not drawn) [compound 402]
3,250 to 1000 nM,CS(=O)(=O)Nc1cccc(CC(C2=NCCN2)c2c(Cl)cccc2Cl)c1 (stereo not drawn) [compound 501]
4,50 to 250 nM,NC(=O)c1cccc(CC(Oc2c(Cl)cccc2Cl)C2=NCCN2)c1 (stereo not drawn) [compound 502]
5,50 to 250 nM,Cc1cccc(C(NC2=NCCS2)c2cccc(NS(C)(=O)=O)c2)c1C (stereo not drawn) [compound 504]
6,10 to 50 nM,Cc1cccc(C(NC2=NCCS2)c2cccc(NC(=O)CC3CCOCC3)c2)c1C (stereo not drawn) [compound 507]
7,250 to 1000 nM,CONC(=O)c1cccc(C(NC2=NCCS2)c2ccccc2OC)c1 (stereo not drawn) [compound 508]
8,50 to 250 nM,Cc1cccc(C(Cc2cccc(NS(C)(=O)=O)c2)C2=NCCN2)c1C (stereo not drawn) [compound 510]
9,< 10 nM,CONC(=O)c1cccc(CC(NC2=NCCS2)c2cccc(C)c2C)c1 (stereo not drawn) [compound 511]
10,< 10 nM,CONC(=O)c1cccc(CC(NC2=NCCS2)c2cccc(Cl)c2Cl)c1 (stereo not drawn) [compound 512]
11,< 10 nM,CONC(=O)c1cc(CC(NC2=NCCS2)c2ccccc2OC)ccn1 (stereo not drawn) [compound 513]
12,50 to 250 nM,COc1ccccc1C(NC1=NCCS1)c1cccc(NC(=O)CC2CCOCC2)c1 (stereo not drawn) [compound 514]
13,50 to 250 nM,Cc1cccc(C(Cc2ccc(NS(C)(=O)=O)cc2)C2=NCCN2)c1C (stereo not drawn) [compound 518]
14,250 to 1000 nM,COCCOCc1cccc(Cl)c1NC1=NCCN1 [compound 520]

# Target: T2, α2AAR (α2A-adrenergic receptor) (Homo sapiens, UniProt P08913)
# T2 construct: expressed in transfected cells; host or cells: HEK293
# T2 sequence (P08913 1-465): T1 sequence (P08913 1-465)
# Test: α2AAR FLIPR assay (agonist activity)
# Type: cell-based
# Conditions: FLIPR, α2AAR cell line hosted in HEK293 cells; read-out: α2A agonist activity (EC50)
# Protocol: This experimental protocol involved cell seeding and a FLIPR assay using the α2AAR (α2A-adrenergic receptor) cell line hosted in HEK293 cells. […] On Day 1, the cell seeding process started with the removal of the culture medium, followed by rinsing the cells with DPBS (21-031-CVC, Corning). […] The cells were detached, resuspended in growth media, and centrifuged at room temperature at 1000 rpm for 5 minutes. After discarding the supernatant, the cell pellet was resuspended in growth media to a concentration of 10× 10^5 cells per mL. This suspension was added to 384-well plates (19-Jul-38, Greiner) at 20 μL per well and incubated overnight at 37° C. in 5% CO2.
# A 250 mM Probenecid solution was prepared in this buffer. The Fluo-4 Direct™ Loading Buffer was made by dissolving Fluo-4 Direct™ crystals (F10471, Invitrogen) in the FLIPR Assay Buffer and adding Probenecid. The buffer was then vortexed and allowed to stand for over 5 minutes, shielded from light. For the FLIPR procedure, testing compounds for agonist activite were serially diluted and transferred to a 384-well compound plate (25-Jan-39, Greiner). The cell plate was then treated with 2× Fluo-4 Direct™ loading buffer and incubated for 50 minutes at 37° C. in a 5% CO2 atmosphere, followed by 10 minutes at room temperature. Subsequently, the FLIPR assay buffer was added to the compound plate, which is then centrifuged.
# The cell plate was analyzed in the FLIPR Tetra+ System for fluorescence signals. For the agonist test, reference compounds were added to the cell plates, and fluorescence was measured. The “Max-Min” calculation began from Read 1 to the maximum allowed. The data were analyzed using Prism software to calculate activation percentage for agonists and inhibition percentage for antagonists. The results were then fitted using specific models to determine EC50 for agonists.
# The experimental protocol utilized various reagents and apparatus, including Penicillin/Streptomycin (100×) (SV30010, Hyclone), Poly-L-lysine hydrobromide (P1399, Sigma), and different types of 384-well plates such as the 384-Well PP 2.0 Microplate (PP-0200, LABCYTE) and 384 well Low Dead Volume Microplate (LP-0200, LABCYTE). The use of specific reference compounds like UK14304 was also integral to the assay.
row,EC50,SMILES
1,> 1000 nM,"CONC(=O)c1cccc(C(c2c[nH]cn2)c2cccc(C)c2C)c1 (single isomer, unassigned) [1-A]"
2,> 1000 nM,"Cc1cccc(C(c2cccc(C(N)=O)c2)c2c[nH]cn2)c1C (single isomer, unassigned) [5-A]"
3,> 1000 nM,"Cc1cccc(C(c2cccc(NC(=O)CC#N)c2)c2c[nH]cn2)c1C (single isomer, unassigned) [10-A]"
4,> 1000 nM,"CNC(=O)NCCOCCOCC(c1c[nH]cn1)c1cccc(C)c1C (single isomer, unassigned) [17-A]"
5,> 1000 nM,"Cc1cccc(C(c2cccc(C(=O)NC3CCOCC3)c2)c2c[nH]cn2)c1C (single isomer, unassigned) [121-A]"
6,> 1000 nM,"Cc1cccc(C(Cc2ccc(C(C)C(=O)O)cc2)c2c[nH]cn2)c1C (single isomer, unassigned) [174-A]"
7,250 to 1000 nM,"Cc1cccc(C(Cc2ccc(C(C)C(=O)O)cc2)c2c[nH]cn2)c1C (single isomer, unassigned) [174-C]"
8,10 to 50 nM,Cc1cccc(C(c2cccc(C(=O)NCCO)c2)c2c[nH]cn2)c1C (stereo not drawn) [compound 2]
9,10 to 50 nM,COCCOCCNC(=O)c1cccc(C(c2c[nH]cn2)c2cccc(C)c2C)c1 (stereo not drawn) [compound 3]
10,50 to 250 nM,Cc1cccc(C(c2cccc(OCCNC(=O)Nc3ccncn3)c2)c2c[nH]cn2)c1C (stereo not drawn) [compound 4]
11,10 to 50 nM,Cc1cccc(C(c2cccc(C(N)=O)c2)c2c[nH]cn2)c1C (stereo not drawn) [compound 5]
12,250 to 1000 nM,CONC(=O)c1cccc(C(c2c[nH]cn2)c2cccc(O)c2C)c1 (stereo not drawn) [compound 7]
13,10 to 50 nM,CONC(=O)c1cccc(C(c2c[nH]cn2)c2cccc(C)c2C)c1O (stereo not drawn) [compound 8]
14,10 to 50 nM,Cc1cccc(C(c2c[nH]cn2)c2cccc(C(N)=O)c2O)c1C (stereo not drawn) [compound 9]
15,10 to 50 nM,Cc1cccc(C(c2cccc(NC(=O)CC#N)c2)c2c[nH]cn2)c1C (stereo not drawn) [compound 10]
16,250 to 1000 nM,Cc1cccc(C(c2cccc(C(=O)O)c2)c2c[nH]cn2)c1C (stereo not drawn) [compound 11]
17,> 1000 nM,Cc1cccc(C(c2ccc(C(=O)O)cc2)c2c[nH]cn2)c1C (stereo not drawn) [compound 12]
18,> 1000 nM,CNC(=O)Nc1ccc(C(c2c[nH]cn2)c2cccc(C)c2C)cc1 (stereo not drawn) [compound 14]
19,> 1000 nM,COCCOCCOCCOCCOCCOc1ccc(C(c2c[nH]cn2)c2cccc(C)c2C)cc1 (stereo not drawn) [compound 15]
20,10 to 50 nM,COCCOCCOCCOCC(c1c[nH]cn1)c1cccc(C)c1C (stereo not drawn) [compound 16]
21,10 to 50 nM,CNC(=O)NCCOCCOCC(c1c[nH]cn1)c1cccc(C)c1C (stereo not drawn) [compound 17]

row,EC50,SMILES
1,10 to 50 nM,Cc1cccc(C(COCCOCCNS(C)(=O)=O)c2c[nH]cn2)c1C (stereo not drawn) [compound 18]
2,50 to 250 nM,Cc1cccc(C(COCCOCCN)c2c[nH]cn2)c1C (stereo not drawn) [compound 19]
3,> 1000 nM,COCCOCCOCCOCCOCCOCCCC(c1c[nH]cn1)c1cccc(C)c1C (stereo not drawn) [compound 21]
4,250 to 1000 nM,Cc1cccc(C(c2cccc(C(=O)N3CCOCC3)c2)c2c[nH]cn2)c1C (stereo not drawn) [compound 23]
5,50 to 250 nM,CC(=O)NCCOCCOCC(c1c[nH]cn1)c1cccc(C)c1C (stereo not drawn) [compound 25]
6,50 to 250 nM,Cc1cccc(C(c2cccc(C(=O)N(C)C)c2)c2c[nH]cn2)c1C (stereo not drawn) [compound 33]
7,> 1000 nM,Cc1cccc(C(c2c[nH]cn2)c2ccccc2C(N)=O)c1C (stereo not drawn) [compound 34]
8,50 to 250 nM,CONC(=O)c1cccc(C(c2c[nH]cn2)c2cccc(Cl)c2Cl)c1 (stereo not drawn) [compound 35]
9,50 to 250 nM,CONC(=O)c1cccc(C(c2c[nH]cn2)c2cccc(Cl)c2C)c1 (stereo not drawn) [compound 36]
10,50 to 250 nM,COCCOCCOCC(c1c[nH]cn1)c1cccc(C)c1C (stereo not drawn) [compound 37]
11,10 to 50 nM,Cc1cccc(C(c2c[nH]cn2)c2cccc(C(N)=O)c2Cl)c1C (stereo not drawn) [compound 38]
12,250 to 1000 nM,CONC(=O)c1cccc(C(c2c[nH]cn2)c2cccc(C(F)(F)F)c2C)c1 (stereo not drawn) [compound 52]
13,50 to 250 nM,Cc1cccc(C(c2cccc(Nc3ccccn3)c2)c2c[nH]cn2)c1C (stereo not drawn) [compound 59]
14,50 to 250 nM,Cc1cccc(C(c2c[nH]cn2)c2cccc(S(N)(=O)=O)c2O)c1C (stereo not drawn) [compound 150]
15,50 to 250 nM,Cc1cccc(C(CN2CCC(NS(C)(=O)=O)CC2)c2c[nH]cn2)c1C (stereo not drawn) [compound 168]
16,50 to 250 nM,Cc1cccc(C(c2cccc(NC(=O)C3C4CC5CC(C4)CC3C5)c2)c2c[nH]cn2)c1C (stereo not drawn) [compound 170]
17,10 to 50 nM,Cc1cccc(C(c2cccc(NS(=O)(=O)C[C@@H]3CCCO3)c2)c2c[nH]cn2)c1C (stereo partly drawn) [compound 172]
18,10 to 50 nM,Cc1cccc(C(c2cccc(NS(=O)(=O)CC3CCCCO3)c2)c2c[nH]cn2)c1C (stereo not drawn) [compound 173]
19,10 to 50 nM,Cc1cccc(C(c2cccc(NC(=O)CC3CCCCC3)c2)c2c[nH]cn2)c1C (stereo not drawn) [compound 178]
20,50 to 250 nM,Cc1cccc(C(c2cccc(NC3(C)COC3)c2)c2c[nH]cn2)c1C (stereo not drawn) [compound 185]
21,50 to 250 nM,Cc1cscc1C(c1cccc(NS(C)(=O)=O)c1)c1c[nH]cn1 (stereo not drawn) [compound 403]

row,SMILES,EC50
1,Cc1cccc(C(c2ccc(O)cc2)c2c[nH]cn2)c1C (stereo not drawn) [compound 13],> 1000 nM
2,Cc1cccc(C(c2cccc(N)c2)c2c[nH]cn2)c1C (stereo not drawn) [compound 39],50 to 250 nM

# Same assay, conditions: α2A agonist activity (EC50, nM)
row,SMILES,EC50
1,CNC(=O)c1cccc(C(c2c[nH]cn2)c2cccc(C)c2C)c1 (stereo not drawn) [compound 6],10 to 50 nM
2,CNCCOCCOCC(c1c[nH]cn1)c1cccc(C)c1C (stereo not drawn) [compound 24],250 to 1000 nM

# Source: patent publication US20240374573A1, “IMIDAZOLE CONTAINING COMPOUNDS, DERIVATIVES THEREFORE, AND USES THEREOF” (AglaeaPharma Inc., priority 2023, published 2024)
